Experiments:
[1] = system: GADD45 and WAF1 mRNA; test: Northern blot of WAF1 and GADD45 mRNA expression in SK-N-MC cells; type: cell-based, human; conditions: DFO 100 μM, other chelators 25 μM, 20 h at 37° C. (FIG. 7)
Method: FIG. 7. […] Northern blotting was performed using standard procedures (see Example 6).
Northern blot analysis was performed by isolating total RNA using the Total RNA Isolation Reagent (Advanced Biotechnologies Ltd, Surrey, United Kingdom). The membranes were hybridised with probes specific for human WAF1, GADD45, and β-actin. The WAF1 probe consisted of a 1 kb fragment from pSXV (ATCC; Cat. No. 79928). The GADD45 probe consisted of a 760 bp fragment from human GADD45 cDNA cloned into pHu145B2 (kindly supplied by Dr. Albert Fornace, National Cancer Institute, NIH, Maryland). The β-actin probe consisted of a 1.4 kb fragment from human β-actin cDNA cloned into pBluescript SK− (ATCC; Cat. No. 37997).

[2] = system: SK-N-MC neuroepithelioma cells; test: 3H-leucine incorporation by SK-N-MC cells; type: cell-based, human; conditions: 20 h incubation then 2 h label; Mean ± SD, 4 experiments
Method: After a 20 h incubation of the SK-N-MC cells with a selection of analogues, ^3H-thymidine, ^3H-leucine, or ^3H-uridine (1 μCi/ml) was added for 2 h at 37° C. The cells were detached from the 96 well plate using 1 mM EDTA in Ca(II)/Mg(II)-free PBS and collected and washed using a cell harvester (Tomtec Harvester 96, Linbrook, Queensland, Australia). Radioactivity was measured on a P-scintillation counter (LKB Wallace, Turku, Finland).

[3] = system: active caspase-8; test: Protein level of active caspase-8 in M109 cells (western blotting); type: cell-based, mouse; conditions: 1 μM
Method: FIG. 14. Effect of Dp44mT (1 μM) on the (A,B) protein levels of active caspase-3, -8 and -9, and (C,D) the activity of caspase-3, -8 and -9 in cultured M109 cells in the absence (C) and presence (D) of cell-permeable caspase inhibitors. (A) Caspase-3, -8, and -9 levels after Dp44mT treatment at indicated times as detected by western blotting (upper panel). The anti-β-actin antibody was used to ensure equal protein loading (lower panel). (B) Densitometric analysis of the expression of caspase-3, -8, and -9 as a function of time normalized to β-actin (C) Caspase activity induced by Dp44mT (1 μM) at 0-48 h was expressed as a percentage of the 0 h time value. (D) Cell-permeable inhibitors of caspase-3, -8 or -9 at 1 μM prevented activation of these enzymes when incubated with Dp44mT (1 μM) for 48 h. Results are mean±SEM of three separate experiments.
Rabbit anti-active caspase-3 antibody, rabbit anti-active caspase-8 antibody and Annexin V fluorescein isothiocyanate (FITC) were from BD PharMingen (San Diego, Calif., USA). Anti-h-cytc MoAb was from R&D Systems Minneapolis, Minn., USA). Rabbit anti-active caspase-9 antibody, mouse anti-Bcl-2 and mouse anti-Bax antibodies were obtained from Santa Cruz (Santa Cruz, Calif., USA). Mouse anti-mouse β-actin antibody, horseradish peroxidase-conjugated antirabbit, and anti-mouse IgG were from Sigma Chemical Co. (St. Louis, Mo., USA).
To determine the role of caspase activation in Dp44mT-induced apoptosis in M109 cells, protein levels of active caspase-3, -8 and -9 (FIG. 14A,B) and their enzymatic activity (FIG. 14C,D) were examined.

Structure (SMILES) | GADD45 and WAF1 mRNA expression [1] | 3H-Leucine Incorporation [2] [% Control] | caspase-8 protein level ([3]; 2 h) | caspase-8 protein level ([3]; 6 h) | caspase-8 protein level ([3]; 12 h) | caspase-8 protein level ([3]; 24 h) | caspase-8 protein level ([3]; 48 h)
CC(=O)N(O)CCCCCNC(=O)CCC(=O)N(O)CCCCCNC(=O)CCC(=O)N(O)CCCCCN [DFO, desferrioxamine] | up-regulation | 9 ± 1 | – | – | – | – | –
CN(C)C(=S)NN=C(c1ccccn1)c1ccccn1 [Dp44mT, di-2-pyridylketone 4,4-dimethyl-3-thiosemicarbazone] | – | – | not increased | 150 % of the control | 400 % of the control | about 4 fold that of control cells | 3.4 fold that of control cells

From patent US20060252798A1, “Metal ion chelators and therapeutic use thereof” (priority 2003, published 2006)
